# How the values were obtained:
# [1] = Storage stability: appearance, assay/label strength (LS), total impurities/degradation products; format: physicochemical; settings: for I/D (%): tablets, desiccant study
# Description: In some embodiments, the film-coated tablets were packaged in 75 and 100 mL white HDPE bottles (Lots A and B, respectively, as described in Tables 11A, 11B) with 1 g silica gel desiccant canisters and a polyester fiber coil. The 75 and 100 mL HDPE bottles contained fourteen and twenty eight tablets, respectively. Each HDPE bottle was capped using a white, continuous thread, child-resistant polypropylene screw cap with an […], aluminum-faced line. The packaged tablets (14 and 28 counts) were evaluated for stability at 40° C./75% RH and 25° C./60% RH. Additionally, the 14-count bottles (without cap) were evaluated for stability under open conditions at 40° C./75% RH.
# For each of the impact studies, the sofosbuvir/velpatasvir SSD/voxilaprevir SSD tablets were packaged in a designated commercial packaging configuration (28-count, 100 mL HPDE bottle, coil, 1 g desiccant), and stored for 12 weeks at 25° C./60% RH and 40° C./75% RH. Tablets were also packaged in open containers (28-count, 100 mL HPDE bottle without cap) and stored for 4 weeks at 40° C./75% RH and for 1 week at 50° C./92% RH.
# The sofosbuvir/velpatasvir SSD/voxilaprevir SSD tablets were packaged in the designated commercial packaging configuration (28-count, 100 mL HPDE bottle, coil, 1 g desiccant), and stored for 6 months at 25° C./60% RH and 40° C./75% RH.
# [2] = Photostability (light exposure, ICH Q1B); format: physicochemical; settings: for Total Imp./Deg. Products (%): tablets
# Description: In some embodiments, and the Examples presented herein, the tablet formulation includes sofosbuvir having Form 6 and, optionally, a trace amount of Form 7.
# Tablet cores and film-coated tablets were evaluated per ICH Q1B guidelines with a total of illumination of more than 1.2 million-lux hours and a total irradiance of more than 200 W·hr/m^2.
# [3] = system: HCV RNA; assay: Emax PK/PD modeling of sofosbuvir exposure vs HCV RNA change from baseline; format: in vivo; settings: 400 mg sofosbuvir dose
# Description: The sofosbuvir dose selected for the tablet formulation is 400 mg once daily. Support for the 400 mg sofosbuvir dose can be derived from Emax PK/PD modeling with early virological and human exposure data which also supports the selection of a 400 mg sofosbuvir dose over others tested.
# The mean sofosbuvir major metabolite AUCtau for the 400 mg sofosbuvir dose is associated with approximately 77% of the maximal HCV RNA change from baseline achievable as determined by this model, a value which is on the cusp of the plateau of the exposure-response sigmoidal curve. In a sigmoidal Emax model, there is a relatively linear exposure-response relationship in the 20 to 80% maximal effect range. Therefore, given that sofosbuvir exposure with 200 mg tablets appears dose-proportional with single doses up to 1200 mg, doses below 400 mg are expected to yield considerable reductions in the magnitude of HCV RNA change from baseline.
smiles,measurement,setting,value
"CC(C)OC(=O)C(C)N[P@](=O)(OC[C@H]1O[C@@H](n2ccc(=O)[nH]c2=O)[C@](C)(F)[C@@H]1O)Oc1ccccc1 (stereo in doubt) [Sofosbuvir, (S)-isopropyl 2-(((S)-(((2R,3R,4R,5R)-5-(2,4-dioxo-3,4-dihydropyrimidin-1(2H)-yl)-4-fluoro-3-hydroxy-4-methyltetrahydrofuran-2-yl)methoxy)(phenoxy)phosphoryl)amino)propanoate]",Total Imp./Deg. (%),"[1]; Batch C tablets, closed 1 g desiccant, 25° C./60% RH, 3 months",0.0%
same,Total Imp./Deg. (%),"[1]; Batch C tablets, closed 1 g desiccant, 25° C./60% RH, 6 months",0.0%
same,Total Imp./Deg. (%),"[1]; Batch C tablets, closed 1 g desiccant, 30° C./75% RH, 3 months",0.0%
same,Total Imp./Deg. (%),"[1]; Batch C tablets, closed 1 g desiccant, 30° C./75% RH, 6 months",0.0%
same,Total Imp./Deg. (%),"[1]; Batch C tablets, closed 1 g desiccant, 40° C./75% RH, 1 month",0.0%
same,Total Imp./Deg. (%),"[1]; Batch C tablets, closed 1 g desiccant, 40° C./75% RH, 3 months",0.0%
same,Total Imp./Deg. (%),"[1]; Batch C tablets, closed 1 g desiccant, 40° C./75% RH, 6 months",0.0%
same,Total Imp./Deg. (%),"[1]; Batch C tablets, closed 1 g desiccant, Initial, time 0",0.0%
same,Total Imp./Deg. Products (%),"[1]; SOF/VEL SSD/VOX SSD granules (Lot F), glass vials, Initial, 0 months",0.0%
same,total impurities/degradation products,"[1]; desiccant/packaging study tablets, all conditions, 6 months",0.0%
same,total impurities/degradation products,"[1]; granules (Lot F), over 6 month storage at 25° C./60% RH and 40° C./75% RH, open and closed",0.0%
same,total impurities/degradation products,"[1]; packaged Formulation G tablets (Tables 11A, 11B), 40° C./75% RH and 25° C./60% RH for 6 months",0.0%
same,total impurities/degradation products,"[1]; packaged tablets Batch A, up to 6 months under all conditions",0.0%
same,total impurities/degradation products,"[1]; packaged tablets Batch D, up to 1 month under all conditions",0.0%
same,total impurities/degradation products,"[1]; packaged tablets Batches B and C, up to 6 months under all conditions",0.0%
same,total impurities/degradation products,"[1]; tablet Lots A-D from sub-potent/super-potent VEL SSD and VOX SSD, all conditions",0.0%
same,Total Imp./Deg. (%),"[1]; tablets Batch A, 25° C./60% RH, 3 mo",0.0%
same,Total Imp./Deg. (%),"[1]; tablets Batch A, 25° C./60% RH, 6 mo",0.0%
same,Total Imp./Deg. (%),"[1]; tablets Batch A, 30° C./75% RH, 3 mo",0.0%
same,Total Imp./Deg. (%),"[1]; tablets Batch A, 30° C./75% RH, 6 mo",0.0%
same,Total Imp./Deg. (%),"[1]; tablets Batch A, 40° C./75% RH, 1 mo",0.0%
same,Total Imp./Deg. (%),"[1]; tablets Batch A, 40° C./75% RH, 3 mo",0.0%
same,Total Imp./Deg. (%),"[1]; tablets Batch A, 40° C./75% RH, 6 mo",0.0%
same,Total Imp./Deg. (%),"[1]; tablets Batch A, Initial, 0 mo",0.0%
same,Total Imp./Deg. (%),"[1]; tablets Batch B, 25° C./60% RH, 3 mo",0.0%
same,Total Imp./Deg. (%),"[1]; tablets Batch B, 25° C./60% RH, 6 mo",0.0%
same,Total Imp./Deg. (%),"[1]; tablets Batch B, 30° C./75% RH, 3 mo",0.0%
same,Total Imp./Deg. (%),"[1]; tablets Batch B, 30° C./75% RH, 6 mo",0.0%
same,Total Imp./Deg. (%),"[1]; tablets Batch B, 40° C./75% RH, 1 mo",0.0%
same,Total Imp./Deg. (%),"[1]; tablets Batch B, 40° C./75% RH, 3 mo",0.0%
same,Total Imp./Deg. (%),"[1]; tablets Batch B, 40° C./75% RH, 6 mo",0.0%
same,Total Imp./Deg. (%),"[1]; tablets Batch B, Initial, 0 mo",0.0%
same,Total Imp./Deg. (%),"[1]; tablets Batch D, 40° C./75% RH, 1 mo",0.0%
same,Total Imp./Deg. (%),"[1]; tablets Batch D, Initial, 0 mo",0.0%
same,Total Imp./Deg. (%),"[1]; tablets Lot A, 25° C./60% RH Closed, 1 mo",0.0%
same,Total Imp./Deg. (%),"[1]; tablets Lot A, 25° C./60% RH Closed, 3 mo",0.0%
same,Total Imp./Deg. (%),"[1]; tablets Lot A, 25° C./60% RH Closed, 6 mo",0.0%
same,Total Imp./Deg. (%),"[1]; tablets Lot A, 40° C./75% RH Closed, 1 mo",0.0%
same,Total Imp./Deg. (%),"[1]; tablets Lot A, 40° C./75% RH Closed, 3 mo",0.0%
same,Total Imp./Deg. (%),"[1]; tablets Lot A, 40° C./75% RH Closed, 6 mo",0.0%
same,Total Imp./Deg. (%),"[1]; tablets Lot A, 40° C./75% RH Open, 1 mo",0.0%
same,Total Imp./Deg. (%),"[1]; tablets Lot A, 40° C./75% RH Open, 3 mo",0.0%
same,Total Imp./Deg. (%),"[1]; tablets Lot A, 40° C./75% RH Open, 6 mo",0.0%
same,Total Imp./Deg. (%),"[1]; tablets Lot A, Initial, 0 mo",0.0%
same,Total Imp./Deg. (%),"[1]; tablets Lot B, 25° C./60% RH Closed, 1 mo",0.0%
same,Total Imp./Deg. (%),"[1]; tablets Lot B, 25° C./60% RH Closed, 3 mo",0.0%
same,Total Imp./Deg. (%),"[1]; tablets Lot B, 25° C./60% RH Closed, 6 mo",0.0%
same,Total Imp./Deg. (%),"[1]; tablets Lot B, 40° C./75% RH Closed, 1 mo",0.0%
same,Total Imp./Deg. (%),"[1]; tablets Lot B, 40° C./75% RH Closed, 3 mo",0.0%
same,Total Imp./Deg. (%),"[1]; tablets Lot B, 40° C./75% RH Closed, 6 mo",0.0%
same,Total Imp./Deg. (%),"[1]; tablets Lot B, Initial, 0 mo",0.0%
same,total impurities/degradation products,"[1]; tablets from SSDs made with high-peroxide copovidone (544 ppm VEL SSD, 655 ppm VOX SSD)",0.0%
same,Total Imp./Deg. (%),"[1]; tablets from VEL SSD 7.0% / VOX SSD 3.2% water content, Initial, time 0",0.0%
same,Total Imp./Deg. (%),"[1]; tablets from VEL SSD 7.0% / VOX SSD 3.2% water content, closed, 1 g desiccant, 25° C./60% RH, 12 weeks",0.0%
same,Total Imp./Deg. (%),"[1]; tablets from VEL SSD 7.0% / VOX SSD 3.2% water content, closed, 1 g desiccant, 40° C./75% RH, 4 weeks",0.0%
same,Total Imp./Deg. (%),"[1]; tablets from VEL SSD 7.0% / VOX SSD 3.2% water content, closed, 1 g desiccant, 40° C./75% RH, 12 weeks",0.0%
same,Total Imp./Deg. (%),"[1]; tablets from VEL SSD 7.0% / VOX SSD 3.2% water content, open, no desiccant, 40° C./75% RH, 4 weeks",0.0%
same,total impurities/degradation products,"[1]; tablets from VEL SSD with 6.0% residual ethanol and VOX SSD with 2.1% residual acetone, all conditions",0.0%
same,total impurities/degradation products,"[1]; tablets from VEL SSD with 7.0% and VOX SSD with 3.2% water content, all conditions",0.0%
same,Total Imp./Deg. (%),"[1]; tablets from copovidone with 544 ppm (VEL SSD) / 655 ppm (VOX SSD) peroxides, Initial, time 0",0.0%
same,Total Imp./Deg. (%),"[1]; tablets from copovidone with 544 ppm (VEL SSD) / 655 ppm (VOX SSD) peroxides, closed, 1 g desiccant, 25° C./60% RH, 12 weeks",0.0%
same,Total Imp./Deg. (%),"[1]; tablets from copovidone with 544 ppm (VEL SSD) / 655 ppm (VOX SSD) peroxides, closed, 1 g desiccant, 40° C./75% RH, 4 weeks",0.0%
same,Total Imp./Deg. (%),"[1]; tablets from copovidone with 544 ppm (VEL SSD) / 655 ppm (VOX SSD) peroxides, closed, 1 g desiccant, 40° C./75% RH, 12 weeks",0.0%
same,Total Imp./Deg. (%),"[1]; tablets from copovidone with 544 ppm (VEL SSD) / 655 ppm (VOX SSD) peroxides, open, no desiccant, 40° C./75% RH, 4 weeks",0.0%
same,I/D (%),"[1]; closed, 1 g desiccant, 25° C./60% RH, 12 weeks",0.0%
same,I/D (%),"[1]; closed, 1 g desiccant, 25° C./60% RH, 24 weeks",0.0%
same,I/D (%),"[1]; closed, 1 g desiccant, 40° C./75% RH, 4 weeks",0.0%
same,I/D (%),"[1]; closed, 1 g desiccant, 40° C./75% RH, 12 weeks",0.0%
same,I/D (%),"[1]; closed, 1 g desiccant, 40° C./75% RH, 24 weeks",0.0%
same,I/D (%),"[1]; closed, no desiccant, 25° C./60% RH, 12 weeks",0.0%
same,I/D (%),"[1]; closed, no desiccant, 25° C./60% RH, 24 weeks",0.0%
same,I/D (%),"[1]; closed, no desiccant, 40° C./75% RH, 4 weeks",0.0%
same,I/D (%),"[1]; closed, no desiccant, 40° C./75% RH, 12 weeks",0.0%
same,I/D (%),"[1]; closed, no desiccant, 40° C./75% RH, 24 weeks",0.0%
same,level of degradation products,"[2]; tablets film-coated to weight gains of 2.1 to 5.4%, ICH Q1B",0.0%
same,Total Imp./Deg. Products (%),"[2]; film-coating 0% weight gain, Exposed to Light",0.0%
same,Total Imp./Deg. Products (%),"[2]; film-coating 0% weight gain, Protected from Light",0.0%
same,Total Imp./Deg. Products (%),"[2]; film-coating 2.1% weight gain, Exposed to Light",0.0%
same,Total Imp./Deg. Products (%),"[2]; film-coating 2.1% weight gain, Protected from Light",0.0%
same,Total Imp./Deg. Products (%),"[2]; film-coating 3.4% weight gain, Exposed to Light",0.0%
same,Total Imp./Deg. Products (%),"[2]; film-coating 3.4% weight gain, Protected from Light",0.0%
same,Total Imp./Deg. Products (%),"[2]; film-coating 4.1% weight gain, Exposed to Light",0.0%
same,Total Imp./Deg. Products (%),"[2]; film-coating 4.1% weight gain, Protected from Light",0.0%
same,Total Imp./Deg. Products (%),"[2]; film-coating 5.4% weight gain, Exposed to Light",0.0%
same,Total Imp./Deg. Products (%),"[2]; film-coating 5.4% weight gain, Protected from Light",0.0%
same,fraction of the maximal HCV RNA change from baseline achievable (Emax model) associated with mean major metabolite AUCtau,[3],approximately 77%

# From patent publication US10912814B2, “Combination formulation of three antiviral compounds” (priority 2016, dated 2021)
